The values that follow come from US20060241078A1, “Pharmaceutical compositions comprising a contraceptive agent in solution and a teratogen” (priority 2005, published 2006).

The nature of the data set: Solubility of estrogen and progestin in solubilizing agents and oils (visual, dropwise solvent addition).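 Also: about 10 mg estrogen or progestin titrated with solubilizing agent or oil, added dropwise with shaking until fully dissolved, completion judged by eye under light.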
[1] abbreviates: solvent/oil: MAPEG 400 DO PEG ester.
The mark [2] stands for this setting: solvent/oil: Supernatant of soybean oil containing isotretinoin (40 mg isotretinoin particles in 1 gram of oil, particles removed by centrifugation).

In the case of `C#C[C@]1(OC(C)=O)CC[C@H]2[C@@H]3CCC4=CC(=NO)CC[C@@H]4[C@H]3CC[C@@]21CC` (mixture of isomers) [Norgestimate, norgestimate], the Solubility is given as 2.6 mg drug/g solvent or oil (solvent/oil: Crodamol EO); 3.4 mg drug/g solvent or oil (solvent/oil: Crodamol GTCC-PN); 6.7 mg drug/g solvent or oil (solvent/oil: Crovol A40); 20.5 mg drug/g solvent or oil (solvent/oil: Ethanol); 9.5 mg drug/g solvent or oil under setting [1]; 4.3 mg drug/g solvent or oil (solvent/oil: Myvacet 9-45K). The Solubility is recorded as 1.9 mg drug/g solvent or oil (solvent/oil: Soybean oil) and 0.802 mg drug/g solvent or oil under setting [2].
`C#C[C@]1(O)CC[C@H]2[C@@H]3CCc4cc(O)ccc4[C@H]3CC[C@@]21C` [Ethinyl estradiol, ethinyl estradiol]: the Solubility (solvent/oil: Crodamol EO) was 12.94 mg drug/g solvent or oil; the Solubility (solvent/oil: Crodamol GTCC-PN) is given as 12.03 mg drug/g solvent or oil; the Solubility (solvent/oil: Crovol A40) was 21.37 mg drug/g solvent or oil; the Solubility (solvent/oil: Ethanol) is recorded as 206 mg drug/g solvent or oil; the Solubility under setting [1] is 12.08 mg drug/g solvent or oil; the Solubility (solvent/oil: Myvacet 9-45K) is 18.08 mg drug/g solvent or oil. The Solubility is on record as 5.32 mg drug/g solvent or oil (solvent/oil: Soybean oil) and 2.89 mg drug/g solvent or oil under setting [2].
With `C#C[C@]1(OC(C)=O)CC[C@H]2[C@@H]3CCC4=CC(=O)CC[C@@H]4[C@H]3CC[C@@]21C` [Norethindrone Acetate, norethindrone acetate], the Solubility is, setting by setting: (solvent/oil: Crodamol EO) 14.42 mg drug/g solvent or oil; (solvent/oil: Crodamol GTCC-PN) 17.94 mg drug/g solvent or oil; (solvent/oil: Crovol A40) 15.85 mg drug/g solvent or oil; (solvent/oil: Ethanol) 49.46 mg drug/g solvent or oil; under setting [1], 9.34 mg drug/g solvent or oil; (solvent/oil: Myvacet 9-45K) 14.47 mg drug/g solvent or oil. Further, the Solubility is recorded as 6.41 mg drug/g solvent or oil (solvent/oil: Soybean oil) and 3.92 mg drug/g solvent or oil under setting [2].
